Measured values from PMC5743070 (The Journal of Biological Chemistry, 2017).

Tests used:
[1] = molecular target: isolated TTD (UHRF1_121–286); test: FP displacement of FITC-labeled H3K9me3(1–25) peptide from TTD; assay type: biochemical; settings: FP displacement of N-terminally FITC-labeled H3K9me3(1-25), 0.04 μM peptide, 8 μM TTD, 20 mM Tris pH 8.5, 50 mM NaCl, 3% DMSO, 0.01% TX100
Excerpt: We designed a fragment library containing 2,040 compounds that was initially screened against isolated TTD (UHRF1_121–286) using a fluorescence polarization (FP) assay that tracked the displacement of a N-terminally tagged H3K9me3 peptide (H3K9me3(1–25)). From this screen, eight putative TTD-binding hits were identified. […] Because of limited commercial availability of the tricyclic amine, we focused only on BPC. The binding of this compound occurs close to (or within) the Arg^296-binding pocket; we observe significant perturbation of Trp^238 and Phe^278 resonances that form part of the pocket, and in Gly^236, which is directly adjacent to it (Fig. 4A and supplemental Fig. S5). We also see chemical shift changes in non-surface exposed residues that are close to or are in contact with the groove.
For FP assays, the TTD (UHRF1_121–286) was buffered in 20 mM Tris (pH 8.5), 50 mM NaCl, 3% DMSO, and 0.01% TX100. N-terminal FITC-labeled H3K9me3(1–25) peptide was synthesized and purified by Tufts University Core Services (Boston, MA). Titrations and compound binding assays were performed in a 10-μl volume at a constant labeled peptide concentration of 0.04 μM. For compound screening and titrations, a non-saturating fixed protein concentration of 8 μM TTD was used. FP assays were performed in 384-well Axygen plates using a Synergy 4 microplate reader (BioTek). […]

TTD–PHD (UHRF1_126–366) = molecular target: T1, TTD–PHD (UHRF1_126–366) (Homo sapiens, UniProt Q96T88); test: (1H-15N) TROSY NMR titration of TTD–PHD; assay type: binding
T1 construct: His tag (TEV-cleavable) (N); made in house
T1 sequence (Q96T88 126-366): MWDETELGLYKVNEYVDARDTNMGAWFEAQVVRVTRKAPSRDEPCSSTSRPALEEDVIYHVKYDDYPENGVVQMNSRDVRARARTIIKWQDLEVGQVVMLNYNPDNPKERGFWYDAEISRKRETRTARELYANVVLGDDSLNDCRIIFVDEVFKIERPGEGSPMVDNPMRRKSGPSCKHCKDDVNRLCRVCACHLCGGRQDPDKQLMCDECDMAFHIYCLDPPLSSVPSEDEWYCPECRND
Procedure: Exchange broadening is clearly observed for Arg^282, Gly^284, Asp^291, Asn^292, Met^294, and Ser^301 amide resonances at 1:3 protein/BPC ratios, with perturbations also seen with Gly^286 and Gly^299 (Fig. 4 and supplemental Fig. S6).
(§1) NMR samples were buffered in 20 mM sodium phosphate (pH 7.5), 150 mM NaCl, 5 mM DTT, 5 mM β-mercaptoethanol, 2 mM TCEP, and 10 μM ZnSO4. The protein concentration was between 200 and 300 μM for all samples. The data were collected at 25 °C on Bruker spectrometers equipped with cryoprobes and operating at 500, 600, or 800 MHz. The assignment of backbone TTD–PHD resonances was accomplished using the ABACUS method ([29]) for which standard backbone and ^15N-edited NOESY spectra were collected using ^15N/^13C/^2H- or ^15N/^13C-labeled protein. All 3D experiments were acquired using non-uniform sampling and processed using the software MDDGUI ([30]) or qMDD ([31]). ^15N-Labeled TTD–PHD was used to acquire ^15N T1 and T2 relaxation and ^1H-^15N heteronuclear NOE measurements ([32]) collected using standard Bruker pulse schemes in an interleaved manner. For T1 measurements, the variable delay was set to 0.1, 0.4, 0.8, 1.5, 2.0, 2.5, 3.5, and 5 s. For T2 measurements, the variable delay was set to 16, 32, 48, 64, 80, 96, 128, and 144 ms. The D1 was 3 s for all experiments. Reported values were the average from two measurements. All spectra were processed using NMRPipe ([33]) and analyzed with SPARKY ([34]).

PHD = test: NMR titration of PHD with BPC; assay type: binding
Procedure: as §1, with “([34]). […]” for “([34]).”
trated by the perturbation of I211, I212 and E281 resonances in HSQC spectra of the TTD in a competition assay. […]

Kdisp [1]: 312 µM
effect on TTD–PHD conformation (TTD–PHD (UHRF1_126–366); Fig. 4): promote open TTD–PHD conformations
SMILES: N=C(N)N1CCC(Cc2ccccc2)CC1 [BPC, 4-benzylpiperidine-1-carboximidamide]
effect on linker resonances of TTD–PHD (TTD–PHD (UHRF1_126–366); (1H-15N) TROSY, ~250 μM protein/750 μM ligand): significant conformational broadening and/or movement of amide peaks
effect on PHD resonances (PHD; 3 mM BPC, 5% DMSO (12:1)): unaffected
interaction with PHD (PHD; separate NMR titration with PHD): no interaction
